Measured values reported in patent US12110286B2, “Benzimidazolone derived inhibitors of BCL6” (Cancer Research Technology Limited, priority 2017, dated 2024).

Target: Trx-6×His-BCL6 (human BCL6 BTB domain covering amino-acid sequence 5-129) (Homo sapiens (Human), UniProt P41182)
Assay: HTRF in vitro assay (BCL6 / BCOR-AF633 peptide)
Type: binding
Conditions: further generated data; 1 nM Trx-6×His-BCL6, 300 nM BCOR-AF633 peptide, 0.5 nM anti-6×His-Terbium cryptate
Experimental: The % inhibition at each concentration was calculated by normalising FRET ratio to the appropriate high (DMSO with all reagents) and low (DMSO without BCL6) controls.

Row | HTRF pIC50 | Compound
1 | 5.65 | Cn1c(=O)n(CCC(C)(C)O)c2cc(Nc3cc(Br)ncc3Cl)ccc21 [Example 22b, 5-((2-bromo-5-chloropyridin-4-yl)amino)-3-(3-hydroxy-3-methylbutyl)-1-methyl-1,3-dihydro-2H-benzo[d]imidazol-2-one]
2 | 5.76 | CCC1(Cn2c(=O)n(C)c3ccc(Nc4ccnc(Cl)c4C#N)cc32)CNC(=O)O1 (stereo not shown) [Example 22c]
3 | 5.45 | Cn1c(=O)n(CCC(C)(C)O)c2cc(Nc3ncnc(Cl)c3C#N)c(F)cc21 [Example 22d]
4 | 5.88 | CCC1(Cn2c(=O)n(C)c3ccc(Nc4ccnc(Cl)c4C#N)cc32)CN(C)C(=O)O1 (stereo not shown) [Example 22e]
5 | 5.75 | Cn1c(=O)n(CCC(C)(C)O)c2cc(Nc3ccnc(Cl)c3C#N)c(F)cc21 [Example 22f]
6 | 5.27 | CCC(C)(O)CCn1c(=O)n(C)c2ccc(Nc3nc(Cl)ncc3Cl)cc21 (stereo not shown) [Example 22g, 5-((2,5-dichloropyrimidin-4-yl)amino)-3-(3-hydroxy-3-methylpentyl)-1-methyl-1,3-dihydro-2H-benzo[d]imidazol-2-one]
7 | 5.47 | Cn1c(=O)n(CCC(C)(C)O)c2cc(Nc3cc(Cl)nc4ccnn34)ccc21 [Example 22h]
8 | 5.54 | Cn1c(=O)n(CCC(C)(C)O)c2cc(Nc3nc(Cl)nc(Cl)c3Cl)ccc21 [Example 22i]
9 | 5.52 | CC[C@]1(O)CCC[C@H]1Cn1c(=O)n(C)c2ccc(Nc3ccnc(Cl)c3C#N)cc21 [Example 22m]
10 | 5.90 | Cn1c(=O)n(C[C@@H]2CCC[C@]2(C)O)c2cc(Nc3ccnc(Cl)c3C#N)ccc21 [Example 22n]
11 | 6.35 | Cn1ccc(-c2ncc(Cl)c(Nc3ccc4c(c3)n(CCC(C)(C)O)c(=O)n4C)n2)n1 [Example 23a, 5-((5-chloro-2-(1-methyl-1H-pyrazol-3-yl)pyrimidin-4-yl)amino)-3-(3-hydroxy-3-methylbutyl)-1-methyl-1,3-dihydro-2H-benzo[d]imidazol-2-one]
12 | 6.05 | Cc1cc(-c2ncc(Cl)c(Nc3ccc4c(c3)n(CCC(C)(C)O)c(=O)n4C)n2)n(C)n1 [Example 23b]
13 | 5.62 | Cn1c(=O)n(CCC(C)(C)O)c2cc(Nc3nc(-c4cccs4)ncc3Cl)ccc21 [Example 23d]
14 | 6.33 | Cn1ccnc1-c1ncc(Cl)c(Nc2ccc3c(c2)n(CCC(C)(C)O)c(=O)n3C)n1 [Example 24a, 5-((5-chloro-2-(1-methyl-1H-imidazol-2-yl)pyrimidin-4-yl)amino)-3-(3-hydroxy-3-methylbutyl)-1-methyl-1,3-dihydro-2H-benzo[d]imidazol-2-one:formic acid (1:1)]
15 | 5.58 | Cn1c(=O)n(CC2COCCN2CC(F)(F)F)c2cc(Nc3ccnc(Cl)c3C#N)ccc21 (stereo not shown) [Example 25a, 2-chloro-4-((1-methyl-2-oxo-3-((4-(2,2,2-trifluoroethyl)morpholin-3-yl)methyl)-2,3-dihydro-1H-benzo[d]imidazol-5-yl)amino)nicotinonitrile]
16 | 5.34 | CCC(Cn1c(=O)n(C)c2ccc(Nc3ccnc(Cl)c3C#N)cc21)N(C)C (stereo not shown) [Example 25b, 2-chloro-4-((3-(2-(dimethylamino)butyl)-1-methyl-2-oxo-2,3-dihydro-1H-benzo[d]imidazol-5-yl)amino)nicotinonitrile: formic acid (1:1)]

Row | Compound | HTRF pIC50
17 | CSc1ncc(Cl)c(Nc2ccc3c(c2)n(CCC(C)(C)O)c(=O)n3C)n1 [Example 22a, 5-((5-chloro-2-(methylthio)pyrimidin-4-yl)amino)-3-(3-hydroxy-3-methylbutyl)-1-methyl-1,3-dihydro-2H-benzo[d]imidazol-2-one] | 6.19
18 | Cn1c(=O)n(CCC(C)(C)O)c2cc(Nc3ncnc(Cl)c3Cl)ccc21 [Example 22l] | 5.64
19 | Cc1nc(C)c(-c2ncc(Cl)c(Nc3ccc4c(c3)n(CCC(C)(C)O)c(=O)n4C)n2)s1 [Example 23c] | 5.99
